{"source": "patent US20020091148A1", "about": "“3-substituted indole antiproliferative angiogenesis inhibitors” (priority 2000, published 2002)", "data": [{"system": "certain tumor models", "settings": "Adv. Cancer Res. 2000, 79, 1-38; cited from earlier work", "values": [{"molecule": "Cc1cc(C)c(/C=C2\\C(=O)Nc3ccccc32)[nH]1", "note": "[SU5416]", "in vivo activity against certain tumor models": "good in vivo activity"}]}, {"system": "not given", "settings": "not given", "units": {"melting point": "°C"}, "values": [{"molecule": "CCN(CC)C(=O)c1c(C(=O)NN=Cc2ccc(Cl)cc2)[nH]c2ccccc12", "note": "[Example 105, 2-((2-(4-chlorobenzylidene)hydrazino)carbonyl)-N,N-diethyl-1H-indole-3-carboxamide]", "melting point": "255 to 257"}, {"molecule": "CS(=O)(=O)c1c(C(=O)NN=Cc2ccc(Cl)cc2)[nH]c2ccccc12", "note": "[Example 110, N′-((4-chlorophenyl)methylidene)-3-(methylsulfonyl)-1H-indole-2-carbohydrazide]", "melting point": "> 280"}, {"molecule": "COc1c(C(=O)NN=Cc2ccc(Cl)cc2)[nH]c2ccccc12", "note": "[Example 118, N′-((4-chlorophenyl)methylidene)-3-methoxy-1H-indole-2-carbohydrazide]", "melting point": "249 to 251"}, {"molecule": "O=C(NN=Cc1ccc(Cl)cc1)c1[nH]c2ccccc2c1Br", "note": "[Example 119, 3-bromo-N′-((4-chlorophenyl)methylidene)-1H-indole-2-carbohydrazide]", "melting point": "> 250"}, {"molecule": "CN(N=Cc1ccc(Br)cc1)C(=O)c1[nH]c2ccccc2c1-c1ccccc1", "note": "[Example 151, N′-((4-bromophenyl)methylidene)-N-methyl-3-phenyl-1H-indole-2-carbohydrazide]", "melting point": "210 to 212"}, {"molecule": "CN(N=Cc1cnc[nH]1)C(=O)c1[nH]c2ccccc2c1-c1ccccc1", "note": "[Example 152, N′-(1H-imidazol-5-ylmethylidene)-N-methyl-3-phenyl-1H-indole-2-carbohydrazide]", "melting point": "248 to 250"}, {"molecule": "CN(N=Cc1ccc(C#N)cc1)C(=O)c1[nH]c2ccccc2c1-c1ccccc1", "note": "[Example 150, N′-((4-cyanophenyl)methylidene)-N-methyl-3-phenyl-1H-indole-2-carbohydrazide]", "melting point": "194 to 196"}, {"molecule": "CSc1c(C(=O)NN=Cc2ccc(Cl)cc2)[nH]c2ccccc12", "note": "[Example 108, N′-((4-chlorophenyl)methylidene)-3-(methylthio)-1H-indole-2-carbohydrazide]", "melting point": "232 to 235"}, {"molecule": "CN(C)C(=O)c1c(C(=O)NN=Cc2ccc3ccccc3c2)[nH]c2ccccc12", "note": "[Example 136, N,N-dimethyl-2-((2-(2-naphthylmethylene)hydrazino)carbonyl)-1H-indole-3-carboxamide]", "melting point": "256 to 260"}, {"molecule": "CS(=O)(=O)c1c(C(=O)NN=Cc2cccc3ccccc23)[nH]c2ccccc12", "note": "[Example 135, 3-(methylsulfonyl)-N′-(1-naphthylmethylidene)-1H-indole-2-carbohydrazide]", "melting point": "> 250"}, {"molecule": "O=C(NN=Cc1ccc(Br)cc1)c1[nH]c2ccccc2c1Cc1ccccc1", "note": "[Example 104, 3-benzyl-N′-((4-bromophenyl)methylidene)-1H-indole-2-carbohydrazide]", "melting point": "227 to 229"}, {"molecule": "CN(N=Cc1ccco1)C(=O)c1[nH]c2ccccc2c1-c1ccccc1", "note": "[Example 149, N′-(2-furylmethylidene)-N-methyl-3-phenyl-1H-indole-2-carbohydrazide]", "melting point": "196 to 199"}, {"molecule": "O=C(NN=Cc1ccc(Cl)cc1)c1[nH]c2ccccc2c1Cc1ccccc1", "note": "[Example 103, 3-benzyl-N′-((4-chlorophenyl)methylidene)-1H-indole-2-carbohydrazide]", "melting point": "221 to 222"}, {"molecule": "CS(=O)(=O)c1c(C(=O)NN=Cc2nccs2)[nH]c2ccccc12", "note": "[Example 111, 3-(methylsulfonyl)-N′-(1,3-thiazol-2-ylmethylidene)-1H-indole-2-carbohydrazide]", "melting point": "> 280"}, {"molecule": "CSc1c(C(=O)NN=Cc2nccs2)[nH]c2ccccc12", "note": "[Example 109, 3-(methylthio)-N′-(1,3-thiazol-2-ylmethylidene)-1H-indole-2-carbohydrazide]", "melting point": "216 to 222"}, {"molecule": "O=C(NN=Cc1ccc(Cl)cc1)c1[nH]c2ccccc2c1C(=O)Nc1ccccc1", "note": "[Example 107, 2-((2-(4-chlorobenzylidene)hydrazino)carbonyl)-N-phenyl-1H-indole-3-carboxamide]", "melting point": "> 260"}]}]}
